Test results taken from ChEMBL document CHEMBL1201862, “PubChem BioAssay data set” (2004).
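Values below derive from 48-hour exposures of cells grown in 96-well plates, with endpoints linearly interpolated between the two concentrations bracketing the appropriate inhibition level. GI50 = concentration required for 50% inhibition of growth.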 Active and inactive are the calls of the source. Cut-off read from the data, not from the text of the source: active = GI50 up to about 1.1 µM and inactive = higher.

Experiments:
Test in all cases: NCI tumour cell line growth inhibition, 48 h
[1] = test system: A498
[2] = test system: A549
[3] = test system: ACHN
[4] = test system: BT-549
[5] = test system: DU-145
[6] = test system: EKVX
[7] = test system: KM12
[8] = test system: LOX IMVI
[9] = test system: MDA-MB-435
[10] = test system: MDA-N
[11] = test system: NCI-H226
[12] = test system: NCI-H460
[13] = test system: NCI-H522
[14] = test system: SF-268
[15] = test system: SF-295
[16] = test system: SK-OV-3
[17] = test system: SNB-75
[18] = test system: T47D
[19] = test system: HOP-92

For `CC(=O)OC1COC(Nc2nc(NCc3ccccc3)n(C)c(=O)c2N=O)C(OC(C)=O)C1OC(C)=O` (configuration not stated), the GI50 [1] was > 10 µM (inactive), the GI50 [2] was > 10 µM (inactive) and the GI50 [3] was > 10 µM (inactive). The GI50 [4] was > 10 µM (inactive), the GI50 [5] was > 10 µM (inactive) and the GI50 [6] was > 10 µM (inactive). The GI50 [7] was > 10 µM (inactive), the GI50 [8] was > 10 µM (inactive) and the GI50 [9] was > 10 µM (inactive). The GI50 [10] was > 10 µM (inactive), the GI50 [11] was > 10 µM (inactive) and the GI50 [12] was > 10 µM (inactive). For the same molecule, the GI50 [13] was > 10 µM (inactive), the GI50 [14] was > 10 µM (inactive) and the GI50 [15] was > 10 µM (inactive). For the same molecule, the GI50 [16] was > 10 µM (inactive), the GI50 [17] was > 10 µM (inactive) and the GI50 [18] was > 10 µM (inactive).

`COc1ccc(N[C@H](CSc2ccc(C)cc2)c2ccc(F)cc2)cc1` was tested, and the GI50 [2] was 74.6 µM (inactive), the GI50 [3] was > 100 µM (inactive) and the GI50 [4] was > 100 µM (inactive). For the same molecule, the GI50 [5] was > 100 µM (inactive), the GI50 [6] was > 100 µM (inactive) and the GI50 [7] was > 100 µM (inactive). For the same molecule, the GI50 [8] was 29.4 µM (inactive), the GI50 [9] was > 100 µM (inactive) and the GI50 [10] was 71.1 µM (inactive). The GI50 [12] was > 100 µM (inactive), the GI50 [13] was 38.9 µM (inactive) and the GI50 [14] was > 100 µM (inactive). For the same molecule, the GI50 [15] was > 100 µM (inactive), the GI50 [16] was > 100 µM (inactive) and the GI50 [17] was > 100 µM (inactive). For the same molecule, the GI50 [18] was 24.6 µM (inactive).

`CN(C)CCCNC1=C(Cl)C(=O)c2c(O)ccc(O)c2C1=O` was tested, and the GI50 [1] was > 10 µM (inactive), the GI50 [2] was 1.66 µM (inactive) and the GI50 [3] was 6.1 µM (inactive). The GI50 [4] was 1.6 µM (inactive), the GI50 [5] was 1.82 µM (inactive) and the GI50 [6] was 3.37 µM (inactive). The GI50 [19] was 8.2 µM (inactive), the GI50 [7] was 2.99 µM (inactive) and the GI50 [8] was 1.67 µM (inactive). The GI50 [9] was 1.6 µM (inactive), the GI50 [10] was 1.85 µM (inactive) and the GI50 [11] was > 10 µM (inactive). For the same molecule, the GI50 [12] was 2.13 µM (inactive), the GI50 [14] was 1 µM (active) and the GI50 [15] was 1.73 µM (inactive). For the same molecule, the GI50 [16] was > 10 µM (inactive), the GI50 [17] was 9.04 µM (inactive) and the GI50 [18] was 2.09 µM (inactive).

For `C=C[C@@]1(C)CC(=O)[C@]2(O)[C@@]3(C)[C@@H](OC(C)=O)CCC(C)(C)[C@@H]3[C@H](OC(C)=O)[C@H](OC(C)=O)[C@@]2(C)O1`, the GI50 [1] was > 100 µM (inactive), the GI50 [2] was > 100 µM (inactive) and the GI50 [3] was > 100 µM (inactive). The GI50 [4] was > 100 µM (inactive), the GI50 [5] was > 100 µM (inactive) and the GI50 [6] was > 100 µM (inactive). The GI50 [19] was > 100 µM (inactive), the GI50 [7] was 36.1 µM (inactive) and the GI50 [8] was > 100 µM (inactive). The GI50 [9] was > 100 µM (inactive), the GI50 [10] was > 100 µM (inactive) and the GI50 [11] was > 100 µM (inactive). For the same molecule, the GI50 [12] was > 100 µM (inactive), the GI50 [15] was > 100 µM (inactive) and the GI50 [16] was > 100 µM (inactive). The GI50 [17] was > 100 µM (inactive) and the GI50 [18] was > 100 µM (inactive).

With `CC(=O)OCC(OC(C)=O)C(OC(C)=O)C(/C=N\Nc1nc2ccccc2c(=O)[nH]1)=N\Nc1nc2ccccc2c(=O)[nH]1` (configuration not stated) the GI50 [2] was > 100 µM (inactive), the GI50 [3] was > 100 µM (inactive) and the GI50 [4] was > 100 µM (inactive). For the same molecule, the GI50 [5] was > 100 µM (inactive), the GI50 [6] was > 100 µM (inactive) and the GI50 [19] was > 100 µM (inactive). For the same molecule, the GI50 [7] was 4.68 µM (inactive), the GI50 [8] was > 100 µM (inactive) and the GI50 [9] was > 100 µM (inactive). The GI50 [10] was > 100 µM (inactive), the GI50 [11] was > 100 µM (inactive) and the GI50 [12] was 22.3 µM (inactive). The GI50 [13] was > 100 µM (inactive), the GI50 [14] was > 100 µM (inactive) and the GI50 [15] was > 100 µM (inactive). The GI50 [16] was > 100 µM (inactive), the GI50 [17] was > 100 µM (inactive) and the GI50 [18] was 47 µM (inactive).

For `C=C=C(C)C(=O)N(C(C)C)C(C)C`, the GI50 [1] was > 100 µM (inactive), the GI50 [2] was > 100 µM (inactive) and the GI50 [3] was > 100 µM (inactive). The GI50 [4] was > 100 µM (inactive), the GI50 [5] was > 100 µM (inactive) and the GI50 [6] was > 100 µM (inactive). For the same molecule, the GI50 [19] was > 100 µM (inactive), the GI50 [8] was > 100 µM (inactive) and the GI50 [9] was > 100 µM (inactive). For the same molecule, the GI50 [10] was > 100 µM (inactive), the GI50 [11] was > 100 µM (inactive) and the GI50 [12] was > 100 µM (inactive). For the same molecule, the GI50 [14] was > 100 µM (inactive), the GI50 [15] was > 100 µM (inactive) and the GI50 [16] was > 100 µM (inactive). The GI50 [17] was > 100 µM (inactive) and the GI50 [18] was > 100 µM (inactive).

`COc1ccc2c(c1)CC1C3(CCCCC23)CC[N+]1(C)C` (configuration not stated) was tested, and the GI50 [2] was > 100 µM (inactive), the GI50 [3] was > 100 µM (inactive) and the GI50 [4] was 24.9 µM (inactive). The GI50 [5] was > 100 µM (inactive), the GI50 [6] was > 100 µM (inactive) and the GI50 [19] was 87.5 µM (inactive). The GI50 [7] was > 100 µM (inactive), the GI50 [8] was > 100 µM (inactive) and the GI50 [9] was 84.9 µM (inactive). For the same molecule, the GI50 [10] was > 100 µM (inactive), the GI50 [11] was > 100 µM (inactive) and the GI50 [12] was > 100 µM (inactive). The GI50 [13] was 58.9 µM (inactive), the GI50 [14] was 90.8 µM (inactive) and the GI50 [15] was > 100 µM (inactive). The GI50 [16] was > 100 µM (inactive), the GI50 [17] was 34.4 µM (inactive) and the GI50 [18] was > 100 µM (inactive).
